Values of other authors in patent US20220040156A1, “COMPOSITIONS, DEVICES AND METHODS FOR TREATING OBSESSIVE-COMPULSIVE DISORDER” (CENTRE FOR DIGESTIVE DISEASES, priority 2017, published 2022).

Test system: children with autism / autistic symptoms
Settings: reports of Sandler et al. 2000, Rodakis 2015 and unreferenced observations

| SMILES | effect on behavioural changes / autistic symptoms |
| --- | --- |
| CC1(C)S[C@@H]2[C@H](NC(=O)[C@H](N)c3ccc(O)cc3)C(=O)N2[C@H]1C(=O)O [amoxycillin] | reversed almost completely |
| CN[C@H](CC(C)C)C(=O)N[C@H]1C(=O)N[C@@H](CC(N)=O)C(=O)N[C@H]2C(=O)N[C@H]3C(=O)N[C@H](C(=O)N[C@H](C(=O)O)c4cc(O)cc(O)c4-c4cc3ccc4O)[C@H](O)c3ccc(c(Cl)c3)Oc3cc2cc(c3O[C@@H]2O[C@H](CO)[C@@H](O)[C@H](O)[C@H]2O[C@H]2C[C@](C)(N)[C@H](O)[C@H](C)O2)Oc2ccc(cc2Cl)[C@H]1O [vancomycin] | reversal of behavioural changes and progress to normality within a few weeks |
